In US12679878B2, “CRF2 receptor agonists and their use in therapy” (SANOFI, priority 2020, dated 2026):
Starred links: 1 amine or outer side, 2 acyl side, 3 side chain; linkers in the order of their positions; H or OH if unused. Non-standard residues stand in square brackets, D forms with d. Residues, ends and D or L forms follow the SMILES beside them. Groups on a side chain read outwards from the residue. *: point of attachment. C18 diacid = O=C(O)CCCCCCCCCCCCCCCCC(=O)*; C16 diacid = O=C(O)CCCCCCCCCCCCCCC(=O)*; γGlu = O=C(O)[C@H](CCC(=O)[*:2])N[*:1]; Palmitoyl = CCCCCCCCCCCCCCCC(=O)*; AEEA = NCCOCCOCC(=O)O; Aib = CC(C)(N)C(=O)O

Columns and labels:
[1] = Effect on blood pressure, telemetry (Example 17); type: in vivo; conditions: Sprague Dawley rats, 0.1 mg/kg SC
Experimental: The effect of the compounds on blood pressure was determined in telemetry studies in Sprague Dawley rats at a dosage of 0.1 mg/kg SC.
The rats were previously implanted with a telemetry device (DSI, Saint-Paul, USA, HD-S10, HD-S11 or HD S21) and allowed to recover for a minimum period of 2 weeks before treatment with vehicle or the different peptides. Blood pressure (BP) was recorded through a catheter inserted into the abdominal aorta. The device body was placed in the abdomen. At the end of surgery, animals were placed in individual cages until the end of the study.
Pressure signals were recorded for one hour before the treatment (basal period). Thereafter, the subcutaneous administration of the test compound or its vehicle was performed, under continuous recording of the signal over a 48-hour period. Data acquisition was performed using Hem 4.3 acquisition software (Notocord®, Le Pecq, France) connected to the telemetry device. Hemodynamic parameters were recorded during a […] before treatment and every 4-hour period following subcutaneous administration over 48 hours.
Investigated parameters (calculated from BP signal) were Heart Rate (HR) in beats per minute (bpm), Diastolic and Systolic Blood Pressure (DBP) in mmHg, and Mean Blood Pressure (MBP) in mmHg.
Data from Hem were manipulated using Microsoft Excel®. For each parameter, a basal value was determined as the average calculated over a 1-hour period during the pre-treatment sequence, and the values post treatment were calculated over 4-hour periods ([0-4], [4-8], [8-12], [12-16], [16-20], [20-24], [24-28], [32-36], [36-40], [40-44] and [44-48] hours) covering the 48-hour period following administration.
Representative data are presented in Table 15 below, in which “n” represents the number of animals for which individual values were obtained and “Duration” indicates the last time point for which a significant effect on BP was still seen: Table 15

CRF1R receptor = target: T1, CRF1R receptor (Homo sapiens, UniProt P34998); assay: cAMP activity at anti-target CRF1R, CHO-K1 cell line clone 2 (Example 19.10); type: cell-based
T1 construct: host or cells: CHO-K1 clone 2
T1 sequence (P34998 24-415): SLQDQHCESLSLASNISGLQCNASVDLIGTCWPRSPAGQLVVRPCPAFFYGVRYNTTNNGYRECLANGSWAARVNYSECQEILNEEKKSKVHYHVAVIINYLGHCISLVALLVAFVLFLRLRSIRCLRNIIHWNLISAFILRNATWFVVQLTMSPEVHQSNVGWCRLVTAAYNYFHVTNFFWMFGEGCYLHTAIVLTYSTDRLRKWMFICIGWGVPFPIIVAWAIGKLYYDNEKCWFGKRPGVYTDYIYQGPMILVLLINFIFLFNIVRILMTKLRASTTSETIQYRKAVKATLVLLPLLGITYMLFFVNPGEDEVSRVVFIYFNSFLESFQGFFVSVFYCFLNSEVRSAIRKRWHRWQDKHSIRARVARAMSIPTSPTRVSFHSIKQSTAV
Method in brief: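 A CRF1R-overexpressing CHO-K1 line (clone 2) was grown in F12/10% FBS/G418 and frozen in aliquots before use. The cAMP assay followed the preceding procedure, with 100% activation defined by Sauvagine at 100 nM.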

human CRF2α receptor = target: T2, human CRF2α receptor (Homo sapiens, UniProt Q13324); assay: cAMP agonism at human CRF2α receptor in TeloHEAC cells, FA modified peptides (Example 19.9); type: cell-based; conditions: 0% HSA, relative to urocortin 2
T2 construct: expressed in transfected cells; host or cells: TeloHEAC
T2 sequence (Q13324 1-411): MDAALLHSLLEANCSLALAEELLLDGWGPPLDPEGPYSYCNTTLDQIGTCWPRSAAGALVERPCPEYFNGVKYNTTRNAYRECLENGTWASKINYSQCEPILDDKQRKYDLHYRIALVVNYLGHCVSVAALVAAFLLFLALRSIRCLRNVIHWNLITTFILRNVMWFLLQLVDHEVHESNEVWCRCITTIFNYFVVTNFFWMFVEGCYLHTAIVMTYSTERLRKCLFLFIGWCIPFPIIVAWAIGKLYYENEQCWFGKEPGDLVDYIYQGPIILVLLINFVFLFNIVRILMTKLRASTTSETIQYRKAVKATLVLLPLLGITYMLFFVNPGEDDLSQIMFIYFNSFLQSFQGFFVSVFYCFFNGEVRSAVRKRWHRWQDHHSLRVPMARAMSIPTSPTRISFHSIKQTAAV
Method in brief: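 Efficacy and EC50 are referenced to 100 nM urocortin 2 as 100%, with cAMP measured as the 665/620 nm HTRF ratio after 1 h at room temperature. Compounds (0.5 mM DMSO stock, 16 twofold dilutions) acted 30 min at 37 °C on CRF2α-expressing TeloHEAC cells, buffer containing IBMX and 0% or 0.2% HSA.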

Compound	Duration (h): last time point for which a significant effect on BP was still seen [1]	Effect on Systolic Pressure % change from baseline 8 h [1]	Effect on Systolic Pressure % change from baseline 24 h [1]	CRF1/CRF2 ratio (CRF1R receptor; ratio of CRF1 EC50 to CRF2 EC50)	EC50 (human CRF2α receptor)	EC50 (CRF1R receptor; 0% HSA, CRF1R CHO-K1 clone 2, read-out: EC50 [nM] 0% HSA)	Emax (CRF1R receptor; 100% = Sauvagine at 100 nM, CRF1R CHO-K1 clone 2)
CC[C@H](C)[C@H](N)C(=O)N[C@H](C(=O)N[C@@H](CC(C)C)C(=O)N[C@@H](CO)C(=O)N[C@@H](CC(C)C)C(=O)N[C@@H](CC(=O)O)C(=O)N[C@@H](C(=O)N1CCC[C@H]1C(=O)N[C@H](C(=O)N[C@@H](CCCCN)C(=O)N[C@@H](CC(C)C)C(=O)N[C@@H](CCCCNC(=O)COCCOCCNC(=O)COCCOCCNC(=O)CC[C@H](NC(=O)CCCCCCCCCCCCCCCCC(=O)O)C(=O)O)C(=O)N[C@@H](CCC(N)=O)C(=O)N[C@H](C(=O)N[C@@H](CC(C)C)C(=O)N[C@@H](CC(C)C)C(=O)N[C@@H](CCCCN)C(=O)N[C@@H](CCC(N)=O)C(=O)N[C@@H](CCC(=O)O)C(=O)N[C@@H](CCCNC(=N)N)C(=O)N[C@@H](CCC(N)=O)C(=O)N[C@@H](CCCCN)C(=O)NC(C)(C)C(=O)N[C@@H](CCC(N)=O)C(=O)N[C@@H](CCCNC(=N)N)C(=O)N[C@@H](CCC(=O)O)C(=O)N[C@@H](CCC(N)=O)C(=O)N[C@@H](C)C(=O)N[C@@H](CCC(=O)O)C(=O)N[C@@H](CCCCN)C(=O)N[C@@H](CC(N)=O)C(=O)N[C@@H](CCCCN)C(=O)N[C@@H](CCC(N)=O)C(=O)N[C@H](C(=O)N[C@@H](CC(C)C)C(=O)N[C@@H](C)C(=O)N[C@@H](CCC(N)=O)C(=O)N[C@H](C(N)=O)C(C)C)[C@@H](C)CC)[C@@H](C)CC)[C@@H](C)CC)C(C)C)C(C)C [SEQ ID NO: 130, IVLSLDvPIKLK*QILLKQERQKAibQREQAEKNKQILAQV-NH2] (H-IVLSLD[dV]PIKLK([AEEA-AEEA-γGlu-C18 diacid])QILLKQERQK[Aib]QREQAEKNKQILAQV-NH2)	30 h	−15.2%	−9.9%	–	–	–	–
CC[C@H](C)[C@H](N)C(=O)N[C@H](C(=O)N[C@@H](CC(C)C)C(=O)N[C@@H](CO)C(=O)N[C@@H](CC(C)C)C(=O)N[C@@H](CC(=O)O)C(=O)N[C@@H](C(=O)N1CCC[C@H]1C(=O)N[C@H](C(=O)N[C@@H](CCCCN)C(=O)N[C@@H](CC(C)C)C(=O)N[C@@H](CCCCNC(=O)COCCOCCNC(=O)COCCOCCNC(=O)CC[C@H](NC(=O)CCCCCCCCCCCCCCCCC(=O)O)C(=O)O)C(=O)N[C@@H](CCC(N)=O)C(=O)N[C@H](C(=O)N[C@@H](CC(C)C)C(=O)N[C@@H](CC(C)C)C(=O)N[C@@H](CCCCN)C(=O)N[C@@H](CCC(N)=O)C(=O)N[C@@H](CCC(=O)O)C(=O)N[C@@H](CCCNC(=N)N)C(=O)N[C@@H](CCC(N)=O)C(=O)N[C@@H](CCCCN)C(=O)NC(C)(C)C(=O)N[C@@H](CCC(N)=O)C(=O)N[C@@H](CCCNC(=N)N)C(=O)N[C@@H](CCC(N)=O)C(=O)N[C@@H](CCC(N)=O)C(=O)N[C@@H](C)C(=O)N[C@@H](CCC(=O)O)C(=O)N[C@@H](CCCCN)C(=O)N[C@@H](CC(N)=O)C(=O)N[C@@H](CCCCN)C(=O)N[C@@H](CCC(N)=O)C(=O)N[C@H](C(=O)N[C@@H](CC(C)C)C(=O)N[C@@H](C)C(=O)N[C@@H](CCC(N)=O)C(=O)N[C@H](C(N)=O)C(C)C)[C@@H](C)CC)[C@@H](C)CC)[C@@H](C)CC)C(C)C)C(C)C [SEQ ID NO: 135, IVLSLDvPIKLK*QILLKQERQKAibQRQQAEKNKQILAQV-NH2] (H-IVLSLD[dV]PIKLK([AEEA-AEEA-γGlu-C18 diacid])QILLKQERQK[Aib]QRQQAEKNKQILAQV-NH2)	30 h	−8.8%	−4.8%	–	–	–	–
CCCCCCCCCCCCCCCC(=O)N[C@@H](CCC(=O)NCCCC[C@H](NC(=O)[C@H](CC(C)C)NC(=O)CNC(=O)[C@@H](NC(=O)[C@@H]1CCCN1C(=O)[C@H](NC(=O)[C@H](CC(=O)O)NC(=O)[C@H](CC(C)C)NC(=O)[C@H](CO)NC(=O)[C@H](CC(C)C)NC(=O)[C@@H](NC(=O)[C@@H](N)[C@@H](C)CC)C(C)C)C(C)C)[C@@H](C)CC)C(=O)N[C@@H](CCC(N)=O)C(=O)N[C@H](C(=O)N[C@@H](CC(C)C)C(=O)N[C@@H](CC(C)C)C(=O)N[C@@H](CCCCN)C(=O)N[C@@H](CCC(N)=O)C(=O)N[C@@H](CCC(=O)O)C(=O)N[C@@H](CCCNC(=N)N)C(=O)N[C@@H](CCC(N)=O)C(=O)N[C@@H](CCCCN)C(=O)N[C@@H](CCCCN)C(=O)NC(C)(C)C(=O)N[C@@H](CCCNC(=N)N)C(=O)N[C@@H](CCC(N)=O)C(=O)N[C@@H](CCC(N)=O)C(=O)N[C@@H](C)C(=O)N[C@@H](CCC(=O)O)C(=O)N[C@H](C(=O)N[C@@H](CC(N)=O)C(=O)N[C@@H](CCCCN)C(=O)N[C@@H](CCCNC(=N)N)C(=O)N[C@H](C(=O)N[C@@H](CC(C)C)C(=O)N[C@@H](CCC(=O)O)C(=O)N[C@@H](CCCNC(=N)N)C(=O)N[C@H](C(N)=O)C(C)C)[C@@H](C)CC)[C@@H](C)O)[C@@H](C)CC)C(=O)O [compound 220] (H-IVLSLD[dV]PIGLK([γGlu-Palmitoyl])QILLKQERQKK[Aib]RQQAETNKRILERV-NH2; N-terminus assumed)	–	–	–	6	1.48 nM	–	–
CC[C@H](C)[C@H](N)C(=O)N[C@H](C(=O)N[C@@H](CC(C)C)C(=O)N[C@@H](CO)C(=O)N[C@@H](CC(C)C)C(=O)N[C@@H](CC(=O)O)C(=O)N[C@@H](C(=O)N1CCC[C@H]1C(=O)N[C@H](C(=O)N[C@@H](CCCCN)C(=O)N[C@@H](CC(C)C)C(=O)N[C@@H](CCCCNC(=O)CC[C@H](NC(=O)CCCCCCCCCCCCCCC(=O)O)C(=O)O)C(=O)N[C@@H](CCC(N)=O)C(=O)N[C@@H](CCCCN)C(=O)N[C@@H](CC(C)C)C(=O)N[C@@H](CC(C)C)C(=O)N[C@@H](CCCCN)C(=O)N[C@@H](CCC(N)=O)C(=O)N[C@@H](CCC(=O)O)C(=O)N[C@@H](CCCNC(=N)N)C(=O)N[C@@H](CCC(N)=O)C(=O)N[C@@H](CCCNC(=N)N)C(=O)N[C@@H](CCCCN)C(=O)N[C@@H](CCC(=O)O)C(=O)N[C@@H](CCCNC(=N)N)C(=O)N[C@@H](CCC(=O)O)C(=O)N[C@@H](CCC(N)=O)C(=O)N[C@@H](C)C(=O)N[C@@H](CCC(=O)O)C(=O)N[C@@H](CCCCN)C(=O)N[C@@H](CC(N)=O)C(=O)N[C@@H](C)C(=O)N[C@@H](CCCNC(=N)N)C(=O)N[C@H](C(=O)N[C@@H](CC(C)C)C(=O)N[C@@H](C)C(=O)N[C@@H](CCCNC(=N)N)C(=O)N[C@H](C(N)=O)C(C)C)[C@@H](C)CC)[C@@H](C)O)C(C)C)C(C)C [compound 221] (H-IVLSLD[dV]PTKLK([γGlu-C16 diacid])QKLLKQERQRKEREQAEKNARILARV-NH2; N-terminus assumed)	–	–	–	–	2.71 nM	> 100 nM	3.2%
